Entries after “also recorded” stand apart in the source; their conditions may differ. Marks after values point to notes of the source that are not given here.
Tests used:
[1] = test system: PKNbeta; test: Kinase activity and phosphorylation of recombinant PKN-beta from LY294002-treated HeLa cells; type: cell-based
Description: Recombinant wildtype PKN-beta or derivatives of PKN-beta (as described in FIGS. 10-11) were transiently expressed in HeLa cells. Said derivatives were PKN-beta derivative TA and derivative KE as described in example 10 herein. The PKN-beta was modified in each case by a myc-tag as described above which allowed the precipitation of PKN-beta and its derivatives using an anti-Myc antibody.
For the assessment of the activity of PKN-beta an in vitro kinase activity using the immune precipitates was carried out as described above. Half of the precipitates were subjected to the in vitro kinase reaction, the second half was analyzed by Western-blotting using anti-phospho-PRK antibodies. The filter was stripped and reprobed using the anti-PKN-beta antiserum. Phospho-p70 S6 Kinase levels were analyzed from aliquots of cell lysates, that were withdrawn earlier, to confirm the efficacy of the LY294002 treatment even after only 3 h treatment. The anti-phospho p70 antibody was obtained from Cell signaling.

[2] = test system: endogenous PKN-beta; test: Expression of endogenous PKN-beta after LY294002, Western blot, PC-3 cells; type: cell-based, human
Method: (§1) PC-3 cells were cultivated as described in example 1 herein. Said PC-3 cells are PTEN −/−. HeLa cells were obtained from the American Type Culture Collection (ATCC) and grown as described in Sternberger et al. (2002). Transfections were carried out in 10-cm plates (at 30% to 50% confluency) using Fugene 6 (Roche, Nutley, N.J.) according to the manufacturer's instructions. Cultivated cells were trypsinated and harvested following stopping the trypsin effect by medium. Both cell types, i.e. PC-3 cells and HeLa cells were treated for the indicated times with 10 μM LY294002 or DMSO, whereby DMSO was used as the solvent for LY294002 and, because of this, as negative control. The resulting extracts were fractionated by SDS-PAGE and subsequently analysed by Western-blotting. The levels of the indicated proteins such as p110, which served as a loading control, endogenous PKN-beta and phosphorylated Akt were detected using the respective antibodies. Phosphorylated Akt (P*-Akt) serves as a control for the efficacy of the LY294002-mediated treatment.

[3] = test system: endogenous PKN-beta; test: Expression of endogenous PKN-beta after LY294002, Western blot, HeLa cells; type: cell-based; conditions: 10 μM LY294002, 48 h
Method: as §1

[4] = test system: MPB (myelin basic protein); test: In vitro kinase activity of protein kinase N beta derivatives, MPB/MBP phosphorylation; type: biochemical; parameters: key to Activity: +: active; −: inactive; !: no “hyper activation” was observed as one might have expected from comparable mutations in other kinases (Morgan and Debond, 1994); conditions: for Activity: MPB substrate, FIG. 9
Method: The respective fragments were transiently epressed in HeLa cells. Their relative expression was determined by Western-blot analysis of Hela cell extracts using an anti-PKNbeta antibody.
MPB is myelin basic protein which is a standard in vitro phosphorylation substrate.
As may be taken from FIG. 9A apart from the full-length protein kinase N beta only the kinase domain in its otherwise wildtype form is active in phosphorylating MPB.
The PKNbeta-derived molecules were immune-precipitated from the cell extracts shown in FIG. 10 by using anti-tag antibodies. The immune precipitates were washed as described (Klippel et al., 1996) and divided in two halfs. One half was incubated with 5 μg MBP (UBI) as a phosphorylation substrate, 4 mM MgCl2 and gamma ^32P-ATP in a buffered solution for 10 min at room temperature. In addition, phosphatase inhibitors and inhibitors against unspecifically acting kinases were added as in Klippel et al., 1998. Incorporation of radioactive phosphate was detected by autoradiography after separating the reaction products by 16% SDS-PAGE (FIG. 11B).

[5] = test system: GST-GSK3 fusion protein; test: Non-radioactive in vitro kinase assay, anti-phospho GSK3alpha Western blot; type: biochemical; conditions: immune precipitates, 200 μM rATP, FIG. 11A
Method: The second half of the immune precipitates was incubated with 1 μg GST-GSK3 fusion protein (Cell Signaling Technology) as a phosphorylation substrate in the presence of 200 μM rATP. The reaction mixture was subsequently analyzed by 8-16% gradient SDS-PAGE and Western blotting using the anti-phospho GSK3alpha antibody (Cell Signaling Technology) (FIG. 11A).
The specificity of the in vitro phosphorylation reactions was controlled by analyzing kinase defective variants (e.g. containing mutations in the ATP binding site, see above) in parallel to active protein.
In a first step, the suitability of a non-radioactive screening formate was determined, whereby the various protein kinase N beta derivatives as already discussed in connection with example 10, were used for phosphorylating a suitable substrate. Such substrate may, for example, be MBP or a GSK3 peptide which is typically immobilised on a suitable carrier such as agarose- or sepharose beads or on plastic surfaces. In the present case and as depicted in FIG. 11A, the substrate is a GSK3-derived peptide fused to paramyosin. […] The phosphorylated substrate in the present case was detected by anti-phospho GSK3 alpha antibody (mentioned above).

[6] = LY294002 treatment, anti-phospho-PRK antibody
[7] = transient overexpression in HeLa cells

O=c1cc(N2CCOCC2)oc2c(-c3ccccc3)cccc12 [LY294002, 2-(4-morpholinyl)8-phenylchromone]
kinase activity of PKNbeta, phosphorylation of MBP ([1]; 3 h of LY294002 treatment): visible | kinase activity of PKNbeta, phosphorylation of MBP ([1]; 24 h of LY294002 treatment): almost completely inhibited | kinase activity of PKNbeta, phosphorylation of MBP ([1]; LY294002 treatment of HeLa cells prior to lysis, FIG. 13): strong inhibition | phosphorylation of PKNbeta at position 718 [1, 6]: compromised | phosphorylation status of PKN-beta derivative KE [1, 6]: to some extent affected | endogenous PKNbeta expression (protein level) ([2]; 10 μM LY294002, 24 h): visible reduction | endogenous PKNbeta expression (protein level) ([2]; 10 μM LY294002, 48 h): further reduced | endogenous PKNbeta expression (protein level) [3]: reduced amounts can be detected

Kinase domain comprising amino acids 535-889: protein kinase N beta derivative, kinase domain comprising amino acids 535-889
phosphorylation of MBP, 32P incorporation ([4]; immune precipitates, gamma 32P-ATP, autoradiography, FIG. 11B): show activity | phosphorylating MPB (FIG. 9A) [4, 7]: active | Activity [4, 7]: +* | phosphorylation of GSK3-derived substrate [5]: suitable to phosphorylate the substrate; also recorded: show activity

TA718: kinase domain derivative, threonine at position 718 changed to alanine
Activity [4, 7]: −*

TD718: kinase domain derivative, threonine at position 718 changed to aspartic acid
Activity [4, 7]: −*!

TE718: kinase domain derivative, threonine at position 718 changed to glutamic acid
Activity [4, 7]: −*!
